Source: patent US20230060581A1, “METHOD OF TREATING PANCREATIC CANCER” (CEDARS-SINAI MEDICAL CENTER, priority 2020, published 2023)
“Also recorded” adds a separate entry of the source. Where two headings read alike, the source gives them in different places.

Key:
[1] = cited from earlier work; for dose absorbed: human
[2] = humans; cited from earlier work
UGT1A1 = target: T1, UGT1A1 (Homo sapiens, UniProt P22309); details: cited from earlier work
T1 sequence (P22309 26-533): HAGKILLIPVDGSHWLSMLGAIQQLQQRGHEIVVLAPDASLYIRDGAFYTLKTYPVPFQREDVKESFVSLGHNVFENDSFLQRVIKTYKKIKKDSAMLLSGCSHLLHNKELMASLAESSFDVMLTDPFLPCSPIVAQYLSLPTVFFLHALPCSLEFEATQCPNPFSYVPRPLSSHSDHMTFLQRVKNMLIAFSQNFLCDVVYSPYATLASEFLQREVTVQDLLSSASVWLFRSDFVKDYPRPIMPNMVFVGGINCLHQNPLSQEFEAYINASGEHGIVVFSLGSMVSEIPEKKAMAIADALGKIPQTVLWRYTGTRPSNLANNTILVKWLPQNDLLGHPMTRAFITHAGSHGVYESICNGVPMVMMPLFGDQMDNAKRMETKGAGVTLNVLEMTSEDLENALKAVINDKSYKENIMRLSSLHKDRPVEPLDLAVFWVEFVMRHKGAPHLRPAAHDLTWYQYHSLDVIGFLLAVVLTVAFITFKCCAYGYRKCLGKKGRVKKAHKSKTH

CYP1A2 and CYP2C19 = details: metabolic pathway contribution; cited from earlier work
P-gp and BCRP = details: in vitro; cited from earlier work
[3] = in vivo; cited from earlier work
[4] = system: CYP3A4, CYP2C19, and CYP2D6; details: in vitro, cited from earlier work
[5] = system: CYP1A2, CYP2B6, CYP2C8, CYP2C9, CYP3A4 and UGT1A1; details: cited from earlier work
CYP3A4 = CYP3A4 (Homo sapiens, UniProt P08684); details: cited from earlier work
CYP3A4, sequence (P08684 whole entry): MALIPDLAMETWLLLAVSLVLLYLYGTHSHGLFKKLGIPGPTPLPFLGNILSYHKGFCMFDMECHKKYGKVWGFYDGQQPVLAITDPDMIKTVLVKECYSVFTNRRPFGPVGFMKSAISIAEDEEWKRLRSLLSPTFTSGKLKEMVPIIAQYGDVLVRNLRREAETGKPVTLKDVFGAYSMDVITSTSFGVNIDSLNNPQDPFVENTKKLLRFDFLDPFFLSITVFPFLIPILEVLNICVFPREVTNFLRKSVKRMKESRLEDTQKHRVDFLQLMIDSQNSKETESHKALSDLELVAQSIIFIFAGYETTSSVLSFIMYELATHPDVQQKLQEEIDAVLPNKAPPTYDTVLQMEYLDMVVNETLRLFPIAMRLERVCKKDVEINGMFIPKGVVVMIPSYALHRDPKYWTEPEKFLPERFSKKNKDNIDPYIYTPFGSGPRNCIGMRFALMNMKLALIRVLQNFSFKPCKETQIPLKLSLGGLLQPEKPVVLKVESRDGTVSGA

[6] = system: CYP2B6, CYP2C9 and CYP3A4; details: human primary hepatocytes; cited from earlier work
[7] = system: P-gp, BCRP, OATP1B1, OATP1B3, OAT1, OAT3 and OCT2; details: in vitro, cited from earlier work
CYP3A = details: concomitant administration; cited from earlier work
BRAF ΔNVTAP deletion = details: patients with ΔNVTAP deletion, clinical case reports; cited from earlier work
[8] = target: BRAF N486_P490del (delta-NVTAP) (Homo sapiens, UniProt P15056, DEL486-490); details: experimentally, PMID: 26996308; cited from earlier work
BRAF N486_P490del (delta-NVTAP), sequence (P15056 with tags, fused parts or gaps DEL486-490): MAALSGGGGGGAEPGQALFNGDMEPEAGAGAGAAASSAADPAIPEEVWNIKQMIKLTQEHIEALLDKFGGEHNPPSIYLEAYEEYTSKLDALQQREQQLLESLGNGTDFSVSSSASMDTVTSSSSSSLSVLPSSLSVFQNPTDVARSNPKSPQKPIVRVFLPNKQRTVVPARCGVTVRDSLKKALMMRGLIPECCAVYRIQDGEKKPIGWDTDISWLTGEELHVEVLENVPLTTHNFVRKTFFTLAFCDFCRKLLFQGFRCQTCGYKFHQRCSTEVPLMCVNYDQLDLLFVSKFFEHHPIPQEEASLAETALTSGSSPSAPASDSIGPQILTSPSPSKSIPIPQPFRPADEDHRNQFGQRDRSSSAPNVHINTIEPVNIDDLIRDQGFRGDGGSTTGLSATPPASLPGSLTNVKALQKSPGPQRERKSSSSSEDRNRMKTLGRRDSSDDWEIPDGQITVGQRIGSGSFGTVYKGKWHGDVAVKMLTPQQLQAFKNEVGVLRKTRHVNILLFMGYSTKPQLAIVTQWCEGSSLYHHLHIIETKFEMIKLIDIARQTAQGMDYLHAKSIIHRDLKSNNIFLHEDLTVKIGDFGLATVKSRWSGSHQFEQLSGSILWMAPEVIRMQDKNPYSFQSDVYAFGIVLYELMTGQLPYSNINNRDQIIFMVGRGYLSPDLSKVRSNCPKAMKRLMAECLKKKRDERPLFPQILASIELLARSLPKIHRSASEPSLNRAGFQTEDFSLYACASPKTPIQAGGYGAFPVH

[9] = system: BRAF-mutated pancreatic cancer; test: Response and progression-free survival on BRAF/MEK/ERK-directed therapy, retrospective clinical case series; assay type: in vivo, human; details: patients with fusion abnormalities, single agent trametinib
Text: Each horizontal bar represents the time on therapy without disease progression (i.e. progression-free survival). […] Bars capped with arrows indicate lines of therapy that were continuing as of the last available progress note (censored event).
Individual patient charts were retrospectively reviewed, and clinical information was extracted.
Demographic, clinical descriptors, and outcomes data were collected under institution-specific IRB-approved protocols for each individual site. The data from each site was de-identified before being shared in a HIPAA-compliant database.
Demographic data, date of diagnosis, staging information, treatment history, and response to therapy were collected from all participating sites. Overall survival (OS) was calculated from the time of the patient's diagnosis of advanced PC (i.e. the date of recurrence following surgical resection or the date of initial diagnosis in the context of metastatic or unresectable disease) until death (survival event) or last follow-up (censored event). […] Progression-free survival (PFS) was calculated from the time of initiation of a therapy until discontinuation due to disease progression (survival event), cessation due to tolerability issues (censored event), or the last follow-up (censored event).
All survival analysis methods were implemented in an R/Bioconductor programming environment. […]

Cn1cnc2c(F)c(Nc3ccc(Br)cc3F)c(C(=O)NOCCO)cc21 [Binimetinib]
dose absorbed [1]: approximately 50%
accumulation ([1]; in vivo): approximately 1.5 fold
estimated renal clearance of unchanged drug ([1]; in vivo): 6.3 % of total dose
excretion of unchanged drug in feces ([1]; in vivo): 31.7%
excretion of unchanged drug in urine ([1]; in vivo): 18.4%
time to steady state concentrations ([1]; in vivo): ≤ 15 days
blood-to-plasma concentration ratio [2]: 0.718
bound to plasma proteins [2]: 97.2%
primary route of metabolism (UGT1A1; in vitro): primarily metabolized by glucuronidation through UGT1A1
glucuronidation via UGT1A1 (UGT1A1; metabolic pathway contribution): up to 61.2%
N-dealkylation via CYP1A2 and CYP2C19 (CYP1A2 and CYP2C19): up to 17.8%
transporter substrate (P-gp and BCRP): substrate of P-gp and BCRP; also recorded: substrate for P-gp and BCRP
known potential toxicities, Very Common (≥10%) [3]: diarrhea, nausea, vomiting, fatigue, peripheral edema, increased AST, increased blood creatine phosphokinase, dermatitis acneiform, dry skin, pruritus, rash, decreased ejection fraction

COC(=O)N[C@@H](C)CNc1nccc(-c2cn(C(C)C)nc2-c2cc(Cl)cc(NS(C)(=O)=O)c2F)n1 [Encorafenib]
dose absorbed [1]: At least 86%
excretion, feces ([1]; in vivo): 39%
excretion, urine ([1]; in vivo): 47.2%
metabolising enzymes and pathway [4]: metabolized by CYP3A4 and to a lesser extent by CYP2C19; also recorded: N-dealkylation is the primary metabolic pathway; CYP3A4 (primary), CYP2C19, and CYP2D6 (minor) contribute to total oxidative clearance in human liver microsomes
metabolising enzymes and pathway ([4]; listed as encorafenib): mainly metabolized by CYP3A
reversible enzyme inhibition [5]: reversible inhibitor of CYP1A2, CYP2B6, CYP2C8, CYP2C9, CYP3A4 and UGT1A1
time-dependent enzyme inhibition (CYP3A4): time-dependent inhibitor of CYP3A4
enzyme induction [6]: induced CYP2B6, CYP2C9 and CYP3A4
transporter substrate (P-gp and BCRP): substrate of the transporter P-gp
transporter inhibition [7]: potent inhibitor of the renal transporters, OAT1, OAT3 and OCT2, and the hepatic transporters OATP1B1 and OATP1B3
transporter inhibition ([7]; listed as encorafenib): can potentially inhibit the transporters P-gp, BCRP, OATP1B1, OATP1B3, OAT1, OAT3 and OCT2 at clinical concentrations
effect of strong or moderate CYP3A inhibitors on exposure (CYP3A): may increase encorafenib plasma concentration

CC(C)(C)c1nc(-c2cccc(NS(=O)(=O)c3c(F)cccc3F)c2F)c(-c2ccnc(N)n2)s1 [dabrafenib]
clinical activity (BRAF ΔNVTAP deletion): significant activity
Implications for BRAF Inhibitors: dabrafenib sensitivity [8]: sensitive;

CC(=O)Nc1cccc(-n2c(=O)n(C3CC3)c(=O)c3c(Nc4ccc(I)cc4F)n(C)c(=O)c(C)c32)c1 [trametinib]
patients having disease control [9]: 4/6
